Data set [1] can be described thus: Pharmacokinetic evaluation in SD rats at different oral doses. It is filed as in vivo, Sprague Dawley rats. As to conditions: for Cmax: read-out: Peak concentration Cmax; for AUC(0-t): read-out: Area under the drug-time curve AUC0-last PO; for Tmax: read-out: Peak time Tmax; for half-life: read-out: Half-life T1/2 (PO) (converted). As for the experimental part:
Test Embodiment 5: Pharmacokinetic Evaluation of Compounds in Rats at Different Doses
Experimental objective: to test the pharmacokinetics of the compounds in SD rats at different doses
Sprague Dawley rats (male, 200-300 g, 7-9 weeks old, Shanghai SLAC)
A standard protocol was used to test the pharmacokinetic characteristics of the compounds in SD rats after oral administration. In the experiment, the candidate compound was prepared into a clear solution, and administrated to rats by single oral administration. The vehicle for compound 1 was DMSO: 10% hydroxypropyl β-cyclodextrin aqueous solution=5:95. The vehicle for compounds 1A and 1B was 0.5% carboxymethyl cellulose +0.2% Tween 80. Whole blood samples of compounds 1, 1A and 1B within 48 hours were collected, centrifuged at 3000 g for 15 minutes, and the supernatant was separated to obtain plasma samples. 4-fold volume of acetonitrile solution containing internal standard was added thereto to precipitate protein. The mixture was centrifuged, and the supernatant was taken, and an equal volume of water was added thereto. Then the mixture was centrifuged and the supernatant was taken for injection. The blood drug concentration was quantitatively analyzed by LC-MS/MS analysis method, and pharmacokinetic parameters, such as peak concentration, peak time, half-life, area under the drug-time curve, were calculated.

Data set [2] has as its target T1, S1PR1 (Homo sapiens, UniProt P21453).
T1 construct: expressed in transfected cells
Nature of the data set: In vitro S1PR1 agonistic activity, U2OS-EDG1 cells, LiveBLAzer-FRET B/G (CCF4-AM). It is filed as cell-based. As to conditions: for EC50: 20 hours incubation; for Emax: % Effect. The method, then:
Test Embodiment 2: In Vitro Evaluation of the Agonistic Activity of the Compounds of the Present Disclosure on S1PR1
(§1) Experimental objective: to detect the agonistic activity of compounds on S1PR1
I. Cell Treatment • 1. The cells U2OS-EDG1 (batch number: Invitrogen-K1520) were taken out from a liquid nitrogen tank and quickly thawed in a 37° C. water bath; • 2. the cell suspension was aspirated into a 15 mL centrifuge tube, resuspended in 5 mL of pre-warmed culture medium, and centrifuged at 1000 rpm for 5 min; • 3. the supernatant was discarded, 10 mL of culture medium was resuspended, transferred to a T75 culture flask, and cultured in a 37° C., 5% CO2 incubator.
II. Agonist Assay • 1. Compounds were diluted to working concentrations, and the compounds were 3-fold diluted by Echo 555 (manufacturer: Labcyte) to 10 concentrations, and then 200 nL of each concentration were transferred to cell plates, and centrifuged at 1000 rpm for 15 seconds; • 2. the culture medium in the culture flask was aspirated, and 4 mL of Dulbecco's Phosphate Buffered Saline (DPBS, supplier: Coring, catalog number: 21-031-CVR, batch number: 03318006) was added thereto to wash off the residual serum, and 2 mL of trypsin was added thereto, and incubated in a 37° C. incubator for 2 minutes to digest the cells, and then 10 mL of seed plate culture medium was added to resuspend the cells, and 0.6 mL of the cell suspension was taken out for counting; • 3. the cell density was adjusted with the seed plate culture medium to 1.88E+05 cells/mL, 40 μL was seeded per well (7500\well), and 40 μL of FreeStyle™ Expression culture medium was added around the cell plate, left to stand for 15 minutes at room temperature, and incubated at 37° C. with 5% CO2 for 20 hours.
III. Signal Detection • 1. LiveBLAzer™-FRET B/G Substrate (CCF4-AM) detection reagent was configured according to the instructions; • 2. 8 μL of 6×Substrate Mixture was added to each well of the cell plate, centrifuged at 1000 rpm for 15 seconds, attached with a membrane, incubated at 23° C. for 2 hours, and detected by Envision […].
IV. Data Analysis • 1. The original data was converted into % Effect by using the equation, and the value of EC50 could be obtained by curve fitting with four parameters [obtained in the “log(agonist) vs. response—Variable slope” mode in GraphPad Prism]; • 2. calculation formula: Ratio=(460 nm−blank)/(535 nm−blank) % Effect=(SampleRatio−Ave LCRatio)/(Ave HCRatio−Ave LCRatio)*100%

Data set [3] deals with T1, S1PR1. Nature of the data set: In vitro S1PR1 agonistic activity, PathHunter cell line, chemiluminescent detection. It is filed as cell-based. The method, then: Test Embodiment 1: In Vitro Evaluation of the Agonistic Activity of the Compounds of the Present Disclosure on S1PR1
as §1
I. Cell Treatment • 1. A PathHunter cell line was thawed according to standard procedures; • 2. the cells were inoculated in a 20 μL 384-well microplate and incubated at 37° C. for appropriate time.
II. Agonist • 1. For agonist determination, cells were incubated with samples to be tested to induce a reaction; • 2. a storage solution to be tested was 5-fold diluted into a buffer; • 3. 5 μL of the 5-fold dilution was added to the cells and incubated at 37° C. for 90-180 minutes. The vehicle concentration was 1%.
III. Signal Detection • 1. 12.5 μL or 15 μL of PathHunter detection reagent at a volume ratio of 50% was added at a time, and then incubated at room temperature for 1 hour to generate a detection signal; • 2. the microplate was read with a PerkinElmer Envision™ instrument for chemiluminescent signal detection.
IV. Data Analysis • 1. Activity analysis of the compound was carried out by using CBIS data analysis kit (ChemInnovation, CAA); • 2. calculation formula: % activity=100%×(average test sample RLU−average vehicle RLU)/(average maximum control ligand−average vehicle RLU)

A short description of data set [4]: Pharmacokinetic evaluation in CD-1 mice (intravenous and oral). The conditions noted are these: male, mouse, plasma. It is filed as in vivo. The method, then: Test Embodiment 4: Pharmacokinetic Evaluation of Compound in Mice
Experimental objective: to test the pharmacokinetics of the compound in CD-1 mice
CD-1 mice (male, 20-40 g, 6-10 weeks old, Shanghai BK)
(§2) The standard protocol was used to test the pharmacokinetic characteristics of rodents after intravenous injection and oral administration of the compound. In the experiment, the candidate compound was prepared into a clear solution or a suspension, and administrated to two mice by single intravenous injection and oral administration. The vehicle for intravenous injection was a 5:95 DMSO and 10% hydroxypropyl β-cyclodextrin aqueous solution, and the vehicle for oral administration was a 0.5% w/v methylcellulose and 0.2% w/v tween 80 aqueous solution. Whole blood samples within 24 hours were collected, centrifuged at 3200 g for 10 minutes, and the supernatant was separated to obtain plasma samples. 4-fold volume of acetonitrile solution containing internal standard was added thereto to precipitate protein. The mixture was centrifuged, and the supernatant was taken, and an equal volume of water was added thereto. Then the mixture was centrifuged and the supernatant was taken for injection. The blood drug concentration was quantitatively analyzed by LC-MS/MS analysis method, and pharmacokinetic parameters, such as peak concentration, clearance rate, half-life, area under the drug-time curve and bioavailability, were calculated.

Data set [5] can be described thus: Pharmacokinetic evaluation in SD rats (intravenous and oral). It is filed as in vivo. The conditions noted are these: male, Sprague-Dawley, plasma, SD rat. The method, then: Test Embodiment 3: Pharmacokinetic Evaluation of Compound in Rats
Experimental objective: to test the pharmacokinetics of the compound in SD rats
Sprague Dawley rat (male, 200-300 g, 7-9 weeks old, Shanghai SLAC)
as §2, with “A standard” for “The standard”, “clear solution,” for “clear solution or a suspension,”, “to rats” for “to two mice”, “hydroxypropyl cyclodextrin” for “hydroxypropyl β-cyclodextrin”, “at 3000” for “at 3200”, “for 15” for “for 10”

The mark [6] stands for this setting: SD rat, single oral administration 5 mg/kg, 5 mg/kg.
Where [7] appears, read: male, Sprague-Dawley, rat, plasma, po, 5 mg/kg, single oral administration 5 mg/kg.
Where [8] appears, read: male, Sprague-Dawley, rat, plasma, po, 30 mg/kg, single oral administration 30 mg/kg.

Where a name gives a salt, the structure may show the parent alone. Read-outs that look alike come from different tables or passages of the source.

T1 sequence (P21453 whole entry): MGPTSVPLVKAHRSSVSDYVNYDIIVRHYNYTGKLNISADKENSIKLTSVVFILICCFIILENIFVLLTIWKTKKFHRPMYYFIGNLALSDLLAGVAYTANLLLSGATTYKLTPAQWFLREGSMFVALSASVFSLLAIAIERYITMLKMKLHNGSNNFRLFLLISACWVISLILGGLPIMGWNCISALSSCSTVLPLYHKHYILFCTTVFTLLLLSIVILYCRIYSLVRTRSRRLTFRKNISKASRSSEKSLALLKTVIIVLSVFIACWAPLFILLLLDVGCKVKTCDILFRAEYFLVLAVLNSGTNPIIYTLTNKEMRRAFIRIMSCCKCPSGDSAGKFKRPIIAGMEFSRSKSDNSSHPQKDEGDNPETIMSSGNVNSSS

In general, EC50 refers to the concentration at which the effect is half-maximal. Read a low EC50 as greater potency. The Emax is the maximal effect, on the per cent scale that the assay sets. Consider `CC(C)Oc1ccc(-c2nc(-c3cccc4c3CCC43CCN(CC4(C(=O)O)CC4)C3)no2)cc1C#N` (single isomer, unassigned) [Compound 22A], for which, in data set [1] (setting [6]), the “Area under the drug-time curve AUC0-last PO” value is 26.434 µM·h, the “Half-life T1/2 (PO)” value was found to be 5.69 h, the “Peak time Tmax” value was found to be 2 h and the Cmax amounted to 2500 nM. On S1PR1 [2], the EC50 was 0.15 nM. The Emax on S1PR1 [2] (read-out: Emax) stood at 84.2%.
By bioavailability is commonly meant dose-corrected exposure relative to a reference, in per cent. As a reminder, the Tmax is the time at which the peak concentration occurs. For the compound `CC(C)Oc1ccc(-c2nc(-c3cccc4c3CCC43CCN(CC4(C(=O)O)CC4)C3)no2)cc1C#N` (stereo not drawn) [Hydrochloride of compound 22], the EC50 on S1PR1 [3] (90-180 min at 37° C.) came out at 0.0754 nM. Also, the Emax on S1PR1 [3] (% activity vs maximum control ligand) is 118%. Besides, the Cmax in data set [4] (intravenous 0.5 mg/kg, oral 2.0 mg/kg (route of Cmax not stated), read-out: Peak concentration Cmax) came out at 869 ng/mL; in data set [1] (setting [7]), 2400 nM; in data set [1] (setting [8]) it was 15300 nM; in data set [5] (intravenous 0.8 mg/kg, oral 2.4 mg/kg (route of Cmax not stated), read-out: Peak concentration Cmax), 1770 ng/mL. For the same compound, the bioavailability turned out to be 62.5% in data set [4] (intravenous 0.5 mg/kg, oral 2.0 mg/kg, read-out: Bioavailability F) and 69.5% in data set [5] (intravenous 0.8 mg/kg, oral 2.4 mg/kg, read-out: Bioavailability F). Also, the clearance in data set [4] (intravenous injection 0.5 mg/kg (oral 2.0 mg/kg), read-out: Clearance rate CL) was found to be 5.2 mL/min/kg; in data set [5] (intravenous injection 0.8 mg/kg (oral 2.4 mg/kg), read-out: Clearance rate CL), 3.44 mL/min/kg. Besides, the Vd in data set [4] (intravenous injection 0.5 mg/kg (oral 2.0 mg/kg), read-out: Tissue distribution Vdss) was determined as 1.82 L/kg; in data set [5] (intravenous injection 0.8 mg/kg (oral 2.4 mg/kg), read-out: Tissue distribution Vdss), 1.6 L/kg. In addition, the AUC(0-t) is 7.88 µM·h in data set [4] (oral administration 2.0 mg/kg, read-out: Area under the drug-time curve AUC0-last PO); 32.3 µM·h in data set [1] (setting [7]); 256 µM·h in data set [1] (setting [8]); 16.3 µM·h in data set [5] (oral administration 2.4 mg/kg, read-out: Area under the drug-time curve AUC0-last PO). In addition, the half-life is 220 min in data set [4] (oral administration 2.0 mg/kg, read-out: Half-life T1/2 (PO) (converted)); 494 min in data set [1] (setting [8]); 280 min in data set [5] (oral administration 2.4 mg/kg, read-out: Half-life T1/2 (PO) (converted)). In addition, the results for the time of peak concentration (Tmax) in data set [1] (setting [7]) and in data set [1] (setting [8]) were 5 h and 2 h, respectively.
For `CC(C)Oc1ccc(-c2nc(-c3cccc4c3CCC43CCN(CC4(C(=O)O)CC4)C3)no2)cc1C#N` (single isomer, unassigned) [Compound 22B], in data set [1] (setting [7]), the AUC(0-t) was determined as 33 µM·h, the half-life was 402 min, the Cmax turned out to be 2940 nM and the time of peak concentration (Tmax) came to 3 h. On S1PR1 [2], it took 0.32 nM to reach a half-maximal effect (EC50) and the Emax result is reported as “nM, 74.0%”.

The values are drawn from US11760751B2, “Benzo 2-azaspiro[4.4]nonane compound and use thereof” (HELIOEAST PHARMACEUTICAL CO., LTD., priority 2020, dated 2023).
